Legend:
[1] = In-vivo study of bioavailability in dogs of capsules filled with salts
Method: Four male dogs were used per tested formulation. The animals were randomized over the test groups by a computer-generated random algorithm according to body weight, with all animals within ±20% of the sex mean. A health inspection was performed prior to commencement of treatment to ensure that the animals were in a good state of health. The dogs were subjected to an acclimatization period of at least 5 days before the start of treatment under laboratory conditions. A controlled environment was maintained in the room. The animals were dosed once orally with the formulations of example 1, and blood was collected from all animals under light ether anaesthesia at regular intervals for a period of 12, 24 or 48 hours after dosing.
The mean pharmacokinetic parameters relating to the mean plasma concentration with time of each test formulation are shown in Table 3. The standard deviation, where calculated, is shown between brackets.

[2] = Stability of salts of compound (A) (decomposition to compound (A) and free acid); type: physicochemical; details: partial or complete decomposition to compound (A) and the free acid
From the text: Contrary to a number of other salts of compound (A) that are unstable, the compound of formula (I) is a stable salt.

[3] = male dogs, dosed once orally, capsules, dose normalized to 1 mg/kg, mean

Br.Cc1cc(C#N)cc(C)c1Oc1nc(Nc2ccc(C#N)cc2)nc(N)c1Br [HBr salt, 4-[[4-amino-5-bromo-6-(4-cyano-2,6-dimethylphenyloxy)-2-pyrimidinyl]amino]benzonitrile hydrobromide]
Tmax ([1]; dog, plasma, po, 118.6 mg salt per capsule, male dogs, dosed once orally, capsules of example 1, mean): 4.5 h
Cmax ([1]; dog, plasma, po, 118.6 mg salt per capsule, male dogs, dosed once orally, capsules, without dose normalization, mean): 366 ng/mL
AUC(0-t) ([1]; dog, plasma, po, 118.6 mg salt per capsule, male dogs, dosed once orally, capsules, without dose normalization, mean, read-out: AUC0-last (without dose normalization)): 5860 ng·h/mL
bioavailability in dogs compared with other salts (Cmax, AUC0-last) ([1]; dogs, oral capsules): improved bioavailability
tlast ([1]; male dogs, dosed once orally, capsules of example 1, mean): 48 h
AUC0-last (dose normalized to 1 mg/kg) [1, 3]: 516.1 ng·h/mL
Cmax (dose normalized to 1 mg/kg) [1, 3]: 31.73 ng/mL
stability of the salt [2]: stable
